These results are taken from ChEMBL document CHEMBL1124635, “A probe for octopamine receptors: synthesis of 2-[(4-azido-2,6-diethylphenyl)imino]imidazolidine and its tritiated derivative, a potent reversible-irreversible activator of octopamine-sensitive adenylate cyclase” (J Med Chem, 1989).

Data set [1] is described as follows: Ratio of (Ka) of octopamine to that of compound. The class given is ADME.
Data set [2] concerns Lampyridae. As to the kind of experiment: V max is determined from stimulation of firefly light organ adenylate cyclase. The class given is functional.
Data set [3] in a line: Kinetic constant (Ka) of compound against octopamine receptor. The class given is ADME.
For data set [4], the system named is Lampyridae. As to the kind of experiment: Vmax is determined from stimulation of firefly light organ adenylate cyclase. The class given is functional.

`[3H]c1c(CC)c(N=C2NCCN2)c(CC)c([3H])c1N=[N+]=[N-]`: the Ratio in data set [1] was found to be 86.

With `CN(CCCl)c1cc(Cl)c(NC2=NCCN2)c(Cl)c1`, in the data set on Lampyridae [2], the Vmax was found to be 5%.

In turn, `CCc1cc(N=[N+]=[N-])cc(CC)c1N=C1NCCN1` showed a Ka in data set [3] of 350 nM. Further, the Ratio in data set [1] turned out to be 70.

As to `CCc1cc(N=[N+]=[N-])cc(CC)c1NC1=NCCN1`, the Vmax in the data set with Lampyridae [2] and with Lampyridae [2] (tested as the 3H-labelled form) was 100% throughout.

Consider `CCc1c(Br)c(N)c(Br)c(CC)c1NC1=NCCN1`, for which the Vmax in the data set on Lampyridae [2] amounted to 24%.

With `NCC(O)c1ccc(O)cc1` (stereo not given) [OCTOPAMINE], in the data set with Lampyridae [2], the Vmax worked out at 100%. The Ratio in data set [1] is given as 1.

As for `CCc1cccc(CC)c1NC1=NCCN1`, the Vmax in the data set on Lampyridae [4] was determined as 100%. In data set [1], the Ratio worked out at 12.

As to `CCc1c(Br)c(N)c(Br)c(CC)c1N=C1NCCN1`, the Ratio in data set [1] turned out to be 15.

In the case of `CCc1cc(N)cc(CC)c1NC1=NCCN1`, in the data set with Lampyridae [2], the Vmax worked out at 82%.

For the compound `CCc1cc(N)cc(CC)c1N=C1NCCN1`, the Ratio in data set [1] is 1.3.

For the compound `CN(CCCl)c1cc(Cl)c(N=C2NCCN2)c(Cl)c1`, the Ratio in data set [1] was found to be 6.
